This is an account of results in ChEMBL document CHEMBL1151749, “Discovery of quinazolines as histamine H4 receptor inverse agonists using a scaffold hopping approach” (J Med Chem, 2008).

By IC50 is commonly meant the concentration needed to halve the response being measured. Lower therefore signals higher potency. In general, Ki refers to a dissociation constant, usually derived from enzyme kinetics or from competition with a known ligand. Low values mean a stronger hold on the target, high ones a looser hold on the target.

T1 sequence (Q9H3N8 whole entry): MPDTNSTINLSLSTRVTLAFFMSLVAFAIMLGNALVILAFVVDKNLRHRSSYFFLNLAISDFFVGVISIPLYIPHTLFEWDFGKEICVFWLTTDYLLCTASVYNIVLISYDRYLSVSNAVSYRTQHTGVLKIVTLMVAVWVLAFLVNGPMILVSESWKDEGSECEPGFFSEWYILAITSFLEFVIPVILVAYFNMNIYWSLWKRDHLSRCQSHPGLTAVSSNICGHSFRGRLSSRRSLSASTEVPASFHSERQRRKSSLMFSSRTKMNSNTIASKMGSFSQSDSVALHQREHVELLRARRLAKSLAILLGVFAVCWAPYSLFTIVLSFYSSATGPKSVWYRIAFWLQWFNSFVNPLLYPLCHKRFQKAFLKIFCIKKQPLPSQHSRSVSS

One assay has as its target T1, Histamine H4 receptor (Homo sapiens, UniProt Q9H3N8). The assay can be described thus: Inverse agonist activity at human histamine H4 receptor expressed in HEK293T cells by CRE-beta-galactosidase assay. The class given is functional, cell-based, HEK-293T.
For `CN1CCN(c2nc(NCc3ccoc3)c3cc(Cl)ccc3n2)CC1`, the IC50 is 145 nM.

The target of the next assay is Histamine H4 receptor (Rattus norvegicus, UniProt Q91ZY1). The assay can be described thus: Binding affinity to rat histamine H4 receptor.
Chain of Histamine H4 receptor (Rattus norvegicus, UniProt Q91ZY1) (Q91ZY1 whole entry): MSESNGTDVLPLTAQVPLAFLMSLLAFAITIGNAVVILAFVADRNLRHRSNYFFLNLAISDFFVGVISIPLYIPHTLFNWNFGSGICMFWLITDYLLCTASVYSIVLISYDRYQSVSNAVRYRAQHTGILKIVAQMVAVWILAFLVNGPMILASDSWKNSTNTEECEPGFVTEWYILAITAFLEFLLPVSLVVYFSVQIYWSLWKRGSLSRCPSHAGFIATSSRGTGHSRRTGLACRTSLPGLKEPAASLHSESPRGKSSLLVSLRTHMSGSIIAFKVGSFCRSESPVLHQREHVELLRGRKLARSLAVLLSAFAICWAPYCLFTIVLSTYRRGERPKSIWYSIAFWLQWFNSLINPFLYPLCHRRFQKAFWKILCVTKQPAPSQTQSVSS
`CN1CCN(c2nc(NCc3cccs3)c3cc(Cl)ccc3n2)CC1` gave a Ki of 15.8 nM.

For `CN1CCN(c2nc(NCc3ccoc3)c3cc(Cl)ccc3n2)CC1`, affinity was put at a Ki of 24.5 nM.

In a further assay the target is Histamine H1 receptor (Homo sapiens, UniProt P35367). The assay can be described thus: Displacement of [3H]mepyramine from human histamine H1 receptor expressed in NIH3T3 cells. The class given is cell-based. In general terms: In a radioligand displacement assay an active substance lowers the binding of a labelled ligand.
Chain of Histamine H1 receptor (P35367 whole entry): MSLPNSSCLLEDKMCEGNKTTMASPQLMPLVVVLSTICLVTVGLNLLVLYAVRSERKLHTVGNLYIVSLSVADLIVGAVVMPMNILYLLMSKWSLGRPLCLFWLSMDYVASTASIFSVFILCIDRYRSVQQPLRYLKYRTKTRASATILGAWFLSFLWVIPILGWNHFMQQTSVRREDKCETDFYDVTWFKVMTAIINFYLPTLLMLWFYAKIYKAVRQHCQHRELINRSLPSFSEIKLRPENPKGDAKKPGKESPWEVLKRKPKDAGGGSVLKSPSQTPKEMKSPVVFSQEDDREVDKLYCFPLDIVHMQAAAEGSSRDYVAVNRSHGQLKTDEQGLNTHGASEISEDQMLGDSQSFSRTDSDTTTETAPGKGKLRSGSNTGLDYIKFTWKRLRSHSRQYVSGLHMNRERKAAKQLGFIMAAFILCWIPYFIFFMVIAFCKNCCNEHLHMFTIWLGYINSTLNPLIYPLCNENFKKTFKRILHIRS
As to `CN1CCN(c2nc(NCc3ccoc3)c3cc(Cl)ccc3n2)CC1`, the Ki was 97.7 nM.

The next assay concerns the target T1, Histamine H4 receptor. The assay can be described thus: Displacement of [3H]histamine from human histamine H4 receptor expressed in HEK cells. The assay is classed as cell-based, HEK293.
Turning to `CNc1nc(NCCC2CCN(C)C2)nc2ccc(Cl)cc12` (configuration not stated), the Ki was more than 1000 nM.

`Cc1noc(CNc2nc(N3CCN(C)CC3)nc3ccc(Cl)cc23)n1` gave a Ki of 372 nM. Take `CN1CCN(c2nc(N)c3cc(Cl)ccc3n2)CC1`: affinity was put at a Ki of 105 nM. Still for that read-out and setting: in the case of `CN1CCN(c2nc(Oc3ccccc3)c3ccccc3n2)CC1` it was 2820 nM; in that of `CN1CCN(c2nc(NCCc3ccccc3)c3cc(Cl)ccc3n2)CC1`, 240 nM. Still for that read-out and setting: then `CN1CCN(c2nc(NCc3ccc(N)cc3)c3cc(Cl)ccc3n2)CC1`, with 562 nM. Same read-out and setting: in the case of `COc1ccc(CNc2nc(N3CCN(C)CC3)nc3ccc(Cl)cc23)cc1` it was 363 nM; in that of `CN1CCN(c2nc(NCc3ccco3)c3cc(Cl)ccc3n2)CC1`, 89.1 nM; in that of `CNc1nc(N2C[C@H]3CNC[C@H]3C2)nc2ccc(Cl)cc12`, more than 1000 nM. With `CNc1nc(N2CCC3(CCN(C)CC3)CC2)nc2ccc(Cl)cc12`, the Ki is more than 1000 nM. Same read-out and setting: in the case of `CNc1nc(N2CCC3(CCN(C)C3)C2)nc2ccc(Cl)cc12` (configuration not stated) it was more than 1000 nM; in that of `CNc1nc(N2CCCC2CN2CCN(C)CC2)nc2ccc(Cl)cc12` (configuration not stated), more than 1000 nM. With `CNc1nc(N2CCN(C)CC2)nc2cccc(C)c12`, the affinity, expressed as Ki, was 692 nM. As to `CN1CCN(c2nc(NCc3ccco3)c3ccccc3n2)CC1`, the Ki was 603 nM. In turn, `CN1CCN(c2nc(NCc3ccc(F)cc3)c3cc(Cl)ccc3n2)CC1` showed a Ki of 105 nM. On the same count and under the same terms, in the case of `CNc1nc(N2CCN3CCCC3C2)nc2ccc(Cl)cc12` (configuration not stated) it was 141 nM. On the same count and under the same terms, then `Cc1ccc(CNc2nc(N3CCN(C)CC3)nc3ccc(Cl)cc23)o1`, with 135 nM. Same read-out and setting: then `Cc1cc(Cl)cc2c(NCc3ccco3)nc(N3CCN(C)CC3)nc12`, with 186 nM; and `CNc1nc(N2CCN(C)CC2)nc2cc(Cl)ccc12`, with 955 nM. Compound `CNc1nc(N2CC[C@H](NC)C2)nc2ccc(Cl)cc12` gave a Ki of more than 1000 nM. In turn, `CNc1nc(N2CC[C@H](N)C2)nc2ccc(Cl)cc12` showed a Ki of more than 1000 nM. The same measure, in the same setting: then `CN1CCN(c2nc(Nc3ccccc3)c3ccccc3n2)CC1`, with 8510 nM; and `CN1CCN(c2nc3ccc(Cl)cc3nc2OCc2ccccc2)CC1`, with 269 nM. The same measure, in the same setting: in the case of `CN1CCN(c2nc(NCc3cncs3)c3cc(Cl)ccc3n2)CC1` it was 107 nM; in that of `CN1CCN(c2nc(NCc3ccccc3)c3cc(Cl)ccc3n2)CC1`, 257 nM. `CN1CCN(c2nc(NCc3ccco3)c3cc(F)ccc3n2)CC1`: the Ki is 224 nM. Compound `CN1CCN(c2nc(NCc3ccc(C#N)cc3)c3cc(Cl)ccc3n2)CC1` showed a Ki of 129 nM. Still for that read-out and setting: then `CNc1nc(N2CCN3CCC[C@H]3C2)nc2ccc(Cl)cc12`, with 155 nM; and `CN1CCN(c2nc(NCC3CCCCC3)c3cc(Cl)ccc3n2)CC1`, with 589 nM; and `CN1CCN(c2nc(NCc3cc4ccccc4s3)c3cc(Cl)ccc3n2)CC1`, with 269 nM. The same measure, in the same setting: in the case of `CN1CCN(c2nc(NCCc3ccccc3)c3ccccc3n2)CC1` it was 1480 nM; in that of `CNc1nc(N2CCCN(C)CC2)nc2ccc(Cl)cc12`, more than 1000 nM; in that of `CN1CCN(c2nc(O)c3cc(Cl)ccc3n2)CC1`, 15100 nM. As to `CNc1nc(N2CC(C)N(C)C(C)C2)nc2ccc(Cl)cc12` (configuration not stated), the Ki was more than 1000 nM. With `CN1CCN(c2nc(NCc3ccsc3)c3cc(Cl)ccc3n2)CC1`, affinity was put at a Ki of 35.5 nM. `CNc1nc(N2CC[C@@H](N)C2)nc2ccc(Cl)cc12` showed a Ki of more than 1000 nM. As to `CN1CCN(c2nc(N)c3ccccc3n2)CC1`, the affinity corresponds to a Ki of 2140 nM. In the case of `CN1CCN(c2nc(NCc3nccs3)c3cc(Cl)ccc3n2)CC1`, the affinity corresponds to a Ki of 105 nM.

`CN1CCN(c2nc(NCCc3cccs3)c3cc(Cl)ccc3n2)CC1` had a Ki of 60.3 nM. In the case of `CCOC(=O)CNc1nc(N2CCN(C)CC2)nc2ccc(Cl)cc12`, the Ki was 955 nM. The same measure, in the same setting: then `CN1CCN(c2nc(OCc3ccccc3)c3ccccc3n2)CC1`, with 4070 nM. The same measure, in the same setting: then `CC(C)Nc1nc(N2CCN(C)CC2)nc2ccc(Cl)cc12`, with 759 nM. With `CNc1nc(N2CCN(C)CC2C)nc2ccc(Cl)cc12` (configuration not stated), the Ki was more than 1000 nM. Same read-out and setting: then `CNc1nc(N2CCN(C)CC2)nc2ccc(Cl)cc12`, with 70.8 nM.

As for `CN1CCN(c2nc(NCCO)c3cc(Cl)ccc3n2)CC1`, affinity was put at a Ki of 575 nM. On the same count and under the same terms, then `CNc1nc(N2CC3CCCNC3C2)nc2ccc(Cl)cc12` (configuration not stated), with more than 1000 nM; and `CNc1nc(NCC2CCN(C)C2)nc2ccc(Cl)cc12` (configuration not stated), with more than 1000 nM; and `CN1CCN(c2nc(NCc3ccccc3)c3ccccc3n2)CC1`, with 1070 nM. `CNc1nc(NCC2CCN(C)CC2)nc2ccc(Cl)cc12` had a Ki of more than 1000 nM.

Compound `CN1CCN(c2nc(NCc3ccoc3)c3cc(Cl)ccc3n2)CC1` had a Ki of 26.9 nM. As to `Cc1ccsc1CNc1nc(N2CCN(C)CC2)nc2ccc(Cl)cc12`, the affinity, expressed as Ki, was 33.9 nM. Still for that read-out and setting: in the case of `CN1CCN(c2nc(N(C)C)c3cc(Cl)ccc3n2)CC1` it was 617 nM. In the case of `Cc1csc(CNc2nc(N3CCN(C)CC3)nc3ccc(Cl)cc23)c1`, the Ki is 38.9 nM.
